Reference: patent US7939467B2, “4-(3-aminobenzoyl)-1-ethylpyrazoles and their use as herbicides” (Bayer CropScience AG, priority 2007, dated 2011)

Legend:
Assay in all cases: Herbicidal action against harmful plants, greenhouse pot test (comparative tables)
Format in all cases: in vivo
Polygonum convolvulus = conditions: scored 3-4 weeks after treatment
Excerpt: (§1) Seeds or rhizome pieces of mono- and dicotyledonous harmful plants are placed in sandy loam in pots of a diameter of 9 to 13 cm and covered with soil. The herbicides, formulated as emulsifiable concentrates or dusts, are applied to the surface of the covering soil in the form of aqueous dispersions or suspensions or emulsions at an application rate of 300 to 800 l of water/ha (converted), at various dosages. For further cultivation of the plants, the pots are then kept in a greenhouse under optimum conditions. The visual scoring of the damage to the harmful plants is carried out 3-4 weeks after the treatment. As shown by the results of these comparative tables, the selected compounds according to the invention have better herbicidal activity against a broad spectrum of economically important mono- and dicotyledonous harmful plants than the compounds disclosed in the prior art.
(§2) Seeds of mono- and dicotyledonous harmful plants are placed in sandy loam in cardboard pots, covered with soil and grown in the greenhouse under good growth conditions. Two to three weeks after sowing, the test plants are treated at the three-leaf stage. The compounds according to the invention, which are formulated as wettable powders or as emulsion concentrates, are sprayed at an application rate of 600 to 800 l of water/ha (converted) in a dosage stated in tables 1 to 5 onto the surface of the green plant parts. After the test plants have been left to stand in the greenhouse for 3 to 4 weeks under optimum growth conditions, the action of the compounds according to the invention is scored in comparison to compounds disclosed in the prior art. As shown by the results of these comparison tables, the selected compounds according to the invention have better herbicidal activity against a broad spectrum of economically important mono- and dicotyledonous harmful plants than the compounds disclosed in the prior art.

Viola tricolor = conditions: 320 g a.i./ha; scored 3-4 weeks after treatment; comparative table 1
Excerpt: as §1, §2

Matricaria inodora = conditions: 320 g a.i./ha; scored 3-4 weeks after treatment; comparative table 1
Excerpt: as §1, §2

Setaria viridis = conditions: scored 3-4 weeks after treatment
Excerpt: as §1, §2

Veronica persica = conditions: scored 3-4 weeks after treatment
Excerpt: as §1, §2

Echinochloa crus galli = conditions: 80 g a.i./ha; scored 3-4 weeks after treatment; comparative table 2
Excerpt: as §1, §2

[1] = 320 g a.i./ha, comparative table 1
[2] = 320 g a.i./ha, comparative table 3
[3] = 80 g a.i./ha, comparative table 2

SMILES | Activity against harmful plants POLCO (Polygonum convolvulus; [1]) | Activity against harmful plants VIOTR (Viola tricolor) | Activity against harmful plants MATIN (Matricaria inodora) | Activity against harmful plants SETVI (Setaria viridis; [2]) | Activity against harmful plants VERPE (Veronica persica; [2]) | Activity against harmful plants SETVI (Setaria viridis; [3]) | Activity against harmful plants ECHCG (Echinochloa crus galli) | Activity against harmful plants POLCO (Polygonum convolvulus; [3]) | Activity against harmful plants VERPE (Veronica persica; [3])
CCOCCNc1c(S(C)(=O)=O)ccc(C(=O)c2cnn(CC)c2O)c1Cl | 0% | 70% | 0% | – | – | – | – | – | –
CCn1ncc(C(=O)c2ccc(S(C)(=O)=O)c(NCC3CC3)c2C)c1O | – | – | – | 100% | 90% | – | – | – | –
CCn1ncc(C(=O)c2ccc(S(C)(=O)=O)c(N(C)CCCOC)c2C)c1O | – | – | – | – | – | 90% | 90% | 80% | 90%
CCOCCNc1c(S(C)(=O)=O)ccc(C(=O)c2cnn(CC)c2O)c1C | 70% | 90% | 90% | – | – | – | – | – | –
CCn1ncc(C(=O)c2ccc(S(C)(=O)=O)c(NCC3CC3)c2Cl)c1O | – | – | – | 80% | 70% | – | – | – | –
CCn1ncc(C(=O)c2ccc(S(C)(=O)=O)c(N(C)CCCOC)c2Cl)c1O | – | – | – | – | – | 0% | 40% | 30% | 60%
